Data published in patent publication US8486962B2, “Antifungal agents” (F2G Ltd., priority 2005, dated 2013).
≈ marks a conversion by molar mass, not a printed value. Read-outs that look alike come from different tables or passages of the source.

Tests used:
Format in all cases: cell-based
Aspergillus flavus = assay: MIC, YAG medium, Aspergillus flavus; conditions: YAG medium; for MIC: Aspergillus flavus
Experimental: (§1) Measurement of Minimum Inhibitory Concentrations (MICs)
(§2) Between 1 and 5 mgs of compound were accurately weighed out into a sterile Eppendorf tube. The compound was dissolved in DMSO to give a solution containing 5 mg/ml. Tubes were stored at −20° C. until required.
(§3) On the day of testing thawed solutions were vortex mixed to ensure homogeneity. 30 μl of solution was removed and added to 570 μl of sterile water in a separate sterile Eppendorf. The thoroughly mixed solution was used to prepare a series of doubling dilutions in water, in a deep well plate. Eleven replicate plates were prepared using a Minitrak by aspirating 20 μl from each well into eleven clear polystyrene 96 well plates.
(§4) Spores of Aspergillus spp (Aspergillus fumigatus, Aspergillus terreus, Aspergillus niger and Aspergillus flavus) were harvested from cultures grown on Sabarauds agar for 5 days, and resuspended in PBS/Tween 80 to approx 1×10^7 cfu/ml Other filamentous fungi (Fusarium solani, Scedosporium spp., Trichophyton spp., Absidia corymbifera), were grown on Sabarauds agar for 2-10 days and spores/hyphae resuspended in PBS/Tween to give approx 1×10^7 cfU/ml. Candida species (Candida albicans, Candida glabrata, Candida krusei, Candida parapsilosis and Candida tropicalis) were grown on Sabarauds agar, cells were harvested from the agar using a sterile loop and resuspended in PBS/Tween 80 to approx 1×10^6 cfu/ml. Each organism suspension was diluted in RPMI medium, containing 2% glucose and 0.135M MOPS buffer (pH7.0) to 2×10^4 cfu/ml for Aspergillus spp and other filamentous fungi and 2×10^3 cfu/ml for yeast. 80 μl of an organism suspension was added to each well of the plate containing drug dilutions.
(§5) This produced MIC plates with a drug range 50-0.05 mg/L and organism inocula of 1-2×10^4 cfu/ml for Aspergillus spp and other filamentous fungi and 1-2×10^3 cfu/ml for yeasts. All plates were incubated for 24-48 hrs at 35° C. Growth was assessed by monitoring the optical density at 485 nm for each well. The MIC of a compound is the lowest drug concentration that inhibits growth of an organism by >80% compared with a drug free control. MICs are recorded as mg/L. Other growth media can be used for susceptibility testing, and the activity of the described compounds can also be assessed in a medium comprising, 1% glucose, 1% ammonium chloride and 0.5% yeast extract (YAG medium). To perform MIC tests in this medium, dilutions of compounds are prepared in microtitre plates as described above. Fungal strains to be tested are grown and harvested in an identical manner to that described above, each organism suspension is then diluted in YAG medium to 2×10^4 cfu/ml for Aspergillus spp and other filamentous fungi and 2×10^3 cfu/ml for yeast. 80 μl of an organism suspension was added to each well of the plate containing drug dilutions. This produced MIC plates with a drug range 50-0.05 mg/L and organism inocula of 1-2×10^4 cfu/ml for Aspergillus spp and other filamentous fungi and 1-2×10^3 cfu/ml for yeasts. All plates were incubated for 24 hrs at 35° C. Growth was assessed by monitoring the optical density at 485 nm for each well. The MIC of a compound is the lowest drug concentration that inhibits growth of an organism by >70% compared with a drug free control. MICs are recorded as mg/L. In cases where the MIC of an organism is […]0.05 mg/L the MIC is repeated using a concentration range of 0.5-0.0005 mg/L. MIC tests in YAG medium have more clear-cut endpoints and have slightly lower MICS than those performed in RPMI medium.
(§6) The following organisms were tested: Aspergillus fumigatus AF293 and Aspergillus fumigatus AF210, Aspergillus niger, Aspergillus terreus, Aspergillus favus, Candida albicans, Candida krusei, Candida tropicalis, Candida glabrata, Candida parapsilosis, Trichophyton rubrum, Trichophyton mentagrophytes, Scedosporium prolificans, Scedosporium apiospermum, Absidia corymbifera, Fusarium solani.

[1] = tested on: Aspergillus fumigatus AF293; assay: MIC, YAG medium, Aspergillus fumigatus AF293; conditions: YAG medium; for MIC: Aspergillus fumigatus, AF293, read-out: MIC A Fum. 293
Experimental: as §1, §2, §3, §4, §5, §6

Aspergillus niger = assay: MIC, YAG medium, Aspergillus niger; conditions: YAG medium; for MIC: Aspergillus niger
Experimental: as §1, §2, §3, §4, §5, §6

Aspergillus terreus = assay: MIC, YAG medium, Aspergillus terreus; conditions: YAG medium; for MIC: Aspergillus terreus
Experimental: as §1, §2, §3, §4, §5, §6

[2] = tested on: Aspergillus fumigatus AF210; assay: MIC, YAG medium, Aspergillus fumigatus AF210; conditions: YAG medium; for MIC: Aspergillus fumigatus, AF210, read-out: MIC A Fum. 210
Experimental: as §1, §2, §3, §4, §5, §6

Compound | MIC (Aspergillus flavus; read-out: MIC A Flavus 01) | MIC [1] | MIC (Aspergillus niger; read-out: MIC A Niger 1) | MIC (Aspergillus terreus; read-out: MIC A Terreus 4) | MIC [2] | MIC (Aspergillus flavus; read-out: MIC A Flavus) | MIC (Aspergillus niger; read-out: MIC A Niger) | MIC (Aspergillus terreus; read-out: MIC A Terreus) | MIC A Flavus 01 (Aspergillus flavus) | MIC A Fum. 293 [1] | MIC A Niger 1 (Aspergillus niger) | MIC A Terreus 4 (Aspergillus terreus) | MIC A Fum. 210 [2]
COc1cc(NC(=O)C(=O)c2c(-c3ccccc3)cc3ccccn23)cc(OC)c1OC [Example 222, 2-Oxo-2-(2-phenyl-indolizin-3-yl)-N-(3,4,5-trimethoxy-phenyl)-acetamide] | 0.05 µg/mL (≈ 0.116 µM) | 1.6 µg/mL (≈ 3.72 µM) | 3.1 µg/mL (≈ 7.2 µM) | 0.4 µg/mL (≈ 0.929 µM) | 1.6 µg/mL (≈ 3.72 µM) | – | – | – | – | – | – | – | –
COc1ccc(NC(=O)C(=O)c2c(-c3ccccn3)cc3ccccn23)cc1 [Example 163, N-(4-Methoxy-phenyl)-2-oxo-2-(2-pyridin-2-yl-indolizin-3-yl)-acetamide] | > 50 µg/mL | > 50 µg/mL | 1.6 µg/mL (≈ 4.31 µM) | > 50 µg/mL | > 50 µg/mL | – | – | – | – | – | – | – | –
O=C(C(=O)N1CCOCC1)c1c(-c2ccccc2)cc2ccccn12 [Example 300, 1-Morpholin-4-yl-2-(2-phenyl-indolizin-3-yl)-ethane-1,2-dione] | – | > 50 µg/mL | – | – | > 50 µg/mL | > 50 µg/mL | 25 µg/mL (≈ 74.8 µM) | > 50 µg/mL | – | – | – | – | –
NC(=O)c1ccc(NC(=O)C(=O)c2c(-c3ccccc3)cc3ccccn23)cc1 [Example 161, 4-[2-Oxo-2-(2-phenyl-indolizin-3-yl)-acetylamino]-benzamide] | > 50 µg/mL | > 50 µg/mL | 6.25 µg/mL (≈ 16.3 µM) | > 50 µg/mL | > 50 µg/mL | – | – | – | – | – | – | – | –
CNC(=O)C(=O)c1c(-c2ccccc2)cc2ccccn12 [Example 179, N-Methyl-2-oxo-2-(2-phenyl-indolizin-3-yl)-acetamide] | 25 µg/mL (≈ 89.8 µM) | 12.5 µg/mL (≈ 44.9 µM) | > 50 µg/mL | 6.25 µg/mL (≈ 22.5 µM) | 12.5 µg/mL (≈ 44.9 µM) | – | – | – | – | – | – | – | –
O=C(Nc1ccccc1Cl)C(=O)c1c(-c2ccccc2)cc2ccccn12 [Example 207, N-(2-Chloro-phenyl)-2-oxo-2-(2-phenyl-indolizin-3-yl)-acetamide] | 0.1 µg/mL (≈ 0.267 µM) | 0.8 µg/mL (≈ 2.13 µM) | 0.05 µg/mL (≈ 0.133 µM) | 0.05 µg/mL (≈ 0.133 µM) | 0.8 µg/mL (≈ 2.13 µM) | – | – | – | – | – | – | – | –
COc1ccc(NC(=O)C(=O)c2c(-c3ccccc3)cc3ccc(C)cn23)cn1 [Example 192, N-(6-Methoxy-pyridin-3-yl)-2-(6-methyl-2-phenyl-indolizin-3-yl)-2-oxo-acetamide] | 0.4 µg/mL (≈ 1.04 µM) | 1.6 µg/mL (≈ 4.15 µM) | 0.8 µg/mL (≈ 2.08 µM) | 0.4 µg/mL (≈ 1.04 µM) | 1.6 µg/mL (≈ 4.15 µM) | – | – | – | – | – | – | – | –
N-(3-Methyl-3H-benzoimidazol-5-yl)-2-oxo-2-(2-phenyl-indolizin-3-yl)-acetamide and N-(1-Methyl-1H-benzoimidazol-5-yl)-2-oxo-2-(2-phenyl-indolizin-3-yl)-acetamide [Example 241] | – | – | – | – | – | – | – | – | 0.8 µg/mL | 12.5 µg/mL | 12.5 µg/mL | 12.5 µg/mL | 12.5 µg/mL
Cc1ccc(NC(=O)C(=O)c2c(-c3cccnc3)cc3ccc(C)cn23)cc1 [Example 199, 2-(6-Methyl-2-pyridin-3-yl-indolizin-3-yl)-2-oxo-N-p-tolyl-acetamide] | > 50 µg/mL | > 50 µg/mL | > 50 µg/mL | 1.6 µg/mL (≈ 4.33 µM) | > 50 µg/mL | – | – | – | – | – | – | – | –
CC(C)(C#N)c1cccc(NC(=O)C(=O)c2c(-c3cccnc3)cc3ccccn23)c1 [Example 231, N-[3-(Cyano-dimethyl-methyl)-phenyl]-2-oxo-2-(2-pyridin-3-yl-indolizin-3-yl)-acetamide] | 0.05 µg/mL (≈ 0.122 µM) | 1.6 µg/mL (≈ 3.92 µM) | 0.8 µg/mL (≈ 1.96 µM) | 0.1 µg/mL (≈ 0.245 µM) | 0.8 µg/mL (≈ 1.96 µM) | – | – | – | – | – | – | – | –
